Source: patent publication US20210346315A1, “COMPOSITION FOR INHIBITION OR TREATMENT OF BRAIN TUMORS OR SYMPTOMS ATTRIBUTABLE THERETO” (ENEOS Corporation, priority 2018, published 2021)

How the values were obtained:
[1] = system: human-derived glioma cell line U251MG; assay: Cell proliferative capacity / cell viability of human-derived glioma cell line U251MG (CCK-8); format: cell-based; conditions: for cell viability (proliferation) vs the control group: after 96 hours, 0.1, 1.0, 5 or 10 μM
Protocol: (§1) As the glioma cell lines, the mouse-derived glioma cell line GL261 (transferred from Graduate School of Health Sciences, Gunma University) and the human-derived glioma cell line U251MG (DS Pharma Biomedical Co., Ltd.) were used. First, the glioma cell lines were seeded in a 96-well plate (FALCON) at 2,000 cells/well. Using Dulbecco's modified Eagle's medium (DMEM) (Nacalai Tesque, Inc.) containing 10% fetal bovine serum (FBS) (Valeant Pharmaceuticals International, Inc.), 100 U/mL penicillin, and 100 μg/mL streptomycin (Meiji Seika Pharma Co., Ltd.), seeded cells were cultured for 24 hours at 37° C. under 5% CO2. Then, the medium was replaced with DMEM containing 10% FBS so that the concentration was 90 μL/well. After the medium replacement, a test solution was further added according to each test group. Specifically, in the control group, 10 μL of PBS containing 0.1% DMSO (Nacalai Tesque, Inc.) was added (n=6). In the temozolomide group, temozolomide (Tokyo Chemical Industry Co., Ltd.) was dissolved in PBS containing 0.1% DMSO to obtain a temozolomide solution. Then, 10 μL of the temozolomide solution was added so that the final concentration of temozolomide was 300 μM (n=6). In the astaxanthin and adonixanthin groups, astaxanthin or adonixanthin was dissolved in PBS containing 0.1% DMSO to obtain an astaxanthin or adonixanthin solution. Then, 10 μL each of the astaxanthin or adonixanthin solution was added so that the final concentration of astaxanthin or adonixanthin was 0.1, 1.0, 5, or 10 μM (n=6). At 72 hours and 96 hours after addition of each test solution, the viable cell count of GL261 and U251MG was measured using cell counting kit-8 (CCK-8) (DOJINDO LABORATORIES). Specifically, using a microplate reader (Varioscan Flash 2.4, Thermo Fisher Scientific K.K.) at the time of addition and 2 hours after addition of CCK-8, the absorbance was measured at 450 nm, and the viable cell count was measured using the absorbance at 650 nm as a reference. For example, in the case of 72-hour treatment, CCK-8 was added 70 hours after addition of the test solution, and the absorbance was measured. The absorbance was measured again 2 hours after addition of CCK-8. The value obtained by subtracting the absorbance immediately after addition of CCK-8 as the background from the absorbance 2 hours after addition of CCK-8 was used as data. In the same manner as in Test Example 1, effects of adonirubin or zeaxanthin on the cell proliferative capacity after 72 hours of a human- or mouse-derived glioma cell line were investigated. As adonirubin, the adonirubin obtained in Preparation Example 1 was used, and as zeaxanthin, Zeaxanthin (manufacturer code ASB-00026504, ChromaDex Corporation) was used. Specifically, the glioma cell lines were seeded in a 96-well plate at 2,000 cells/well. Using DMEM containing 10% FBS, 100 U/mL penicillin, and 100 μg/mL streptomycin, seeded cells were cultured for 24 hours at 37° C. under 5% CO2. Then, the medium was replaced with DMEM containing 10% FBS so that the concentration was 90 μL/well. After the medium replacement, a test solution was further added according to each test group. Specifically, in the control group, 10 μL of PBS containing 0.1% DMSO (Nacalai Tesque, Inc.) was added (n=6). In the temozolomide group, temozolomide was dissolved in PBS containing 0.1% DMSO to obtain a temozolomide solution. Then, 10 μL of the temozolomide solution was added so that the final concentration of temozolomide was 300 μM (n=6). In the adonirubin and zeaxanthin groups, adonirubin or zeaxanthin was dissolved in PBS containing 0.1% DMSO to obtain an adonirubin or zeaxanthin solution. Then, 10 μL each of the adonirubin or zeaxanthin solution was added so that the final concentration of adonirubin or zeaxanthin was 0.1, 1.0, 5, or 10 μM (n=6). At 72 hours after addition of each test solution, the cell proliferative capacity of GL261 and U251MG was evaluated using CCK-8 in the same manner as in Test Example 1.

[2] = system: mouse-derived glioma cell line GL261; assay: Cell proliferative capacity / cell viability of mouse-derived glioma cell line GL261 (CCK-8); format: cell-based; conditions: for average value of cell viability, concentration dependence: 0.1 to 10 μM; for cell viability (proliferation) vs the control group: GL261, after 96 hours, 0.1, 1.0, 5 or 10 μM
Protocol: as §1

[3] = Intracerebral distribution of astaxanthin or adonixanthin in cynomolgus monkey (HPLC of brain organs); format: in vivo; conditions: 50 mg/kg body weight once daily for 10 days into the stomach, FIG. 5
Protocol: Each of the astaxanthin and the adonixanthin obtained in Preparation Example 1 was weighed, followed by suspension by adding olive oil (product number 150-00276, manufactured by Wako Pure Chemical Industries, Ltd.) to prepare so that each concentration was 10 mg/mL, thus obtaining an astaxanthin dosing solution and an adonixanthin dosing solution. Each dosing solution was prepared at the time of use, and stored on ice and protected from light until administration.
As experimental animals, cynomolgus monkeys were used. […] The dose in each administration was calculated based on the latest body weight at each administration time point (body weight was measured using an electric balance (HP-40K or GP-40K, both of which were manufactured by A&D Company, Limited) on each of the day of initiation of acclimation, the day of end of acclimation, the day of initiation of administration, and before administration on the day 8 of administration). […]
Each of the concentration of adonixanthin in each organ collected from the adonixanthin-administering monkey (concentration relative to the weight of each organ) and the concentration of astaxanthin in each organ collected from the astaxanthin-administering monkey (concentration relative to the weight of each organ) was measured. […]

[4] = after 72 hours, 0.1, 1.0, 5 or 10 μM
[5] = GL261, after 72 hours, all concentrations (0.1, 1.0, 5 or 10 μM)
[6] = GL261, after 72 hours, 10 μM group

Row | SMILES | cell proliferative capacity vs the control group [1, 4] | cell proliferative capacity vs the control group ([1]; after 72 hours, 1, 5, and 10 μM groups) | cell viability (proliferation) vs the control group ([1]; FIG. 1) | proliferation inhibition compared with the astaxanthin group ([1]; after 96 hours, FIG. 1) | average value of cell viability, concentration dependence ([2]; GL261, after 72 hours) | cell proliferative capacity vs the control group [2, 5] | cell viability (proliferation) vs the control group ([2]; FIG. 2) | proliferation inhibition compared with the astaxanthin group ([2]; GL261, after 96 hours, FIG. 2) | concentration in the brain compared with astaxanthin [3] | concentration in each organ of the brain (transfer into the brain and retention) ([3]; organs collected after blood sampling 4 hours after last administration) | proliferation inhibition compared with the adonirubin group ([1]; after 72 hours) | cell proliferative capacity vs the control group [2, 6] | proliferation inhibition compared with the zeaxanthin group ([2]; GL261, after 72 hours)
1 | CC1=C(/C=C/C(C)=C/C=C/C(C)=C/C=C/C=C(C)/C=C/C=C(C)/C=C/C2=C(C)C(=O)C(O)CC2(C)C)C(C)(C)CC(O)C1 (stereo not drawn) [adonixanthin, 3,3′-dihydroxy-β,β-carotene-4-one] | tends to be concentration-dependently inhibited | significantly inhibited | significantly inhibited at any concentration | inhibited at a higher level | tends to concentration-dependently decrease | significantly inhibited | significantly inhibited at any concentration | inhibited at a higher level | transferred into the brain at a higher concentration | transferred into the brain at a high concentration | – | – | –
2 | CC1=C(/C=C/C(C)=C/C=C/C(C)=C/C=C/C=C(C)/C=C/C=C(C)/C=C/C2=C(C)C[C@@H](O)CC2(C)C)C(C)(C)C[C@H](O)C1 [zeaxanthin, β,β-carotene-3,3′-diol] | significantly inhibited at any concentration | – | – | – | – | tends to be inhibited at any concentration | – | – | – | – | inhibited at a higher level | significantly inhibited | –
3 | CC1=C(/C=C/C(C)=C/C=C/C(C)=C/C=C/C=C(C)/C=C/C=C(C)/C=C/C2=C(C)C(=O)C(O)CC2(C)C)C(C)(C)CC(O)C1=O (stereo not drawn) [astaxanthin, 3,3′-dihydroxy-β,β-carotene-4,4′-dione] | tends to be concentration-dependently inhibited | – | significantly inhibited at any concentration | – | tends to concentration-dependently decrease | – | significantly inhibited at any concentration | – | – | – | – | significantly inhibited | –
4 | CC1=C(/C=C/C(C)=C/C=C/C(C)=C/C=C/C=C(C)/C=C/C=C(C)/C=C/C2=C(C)C(=O)C(O)CC2(C)C)C(C)(C)CCC1=O (stereo not drawn) [adonirubin, 3-hydroxy-β,β-carotene-4,4′-dione] | tends to be inhibited at any concentration | – | – | – | – | significantly inhibited at any concentration | – | – | – | – | – | – | inhibited at a higher level
